Here are results for 1 compound from patent US9399625B2, “Acridone compounds” (Oregon Health & Science University, priority 2006, dated 2016).

The test system of assay [1] is MDR Dd2 strain of P. falciparum. The assay can be described thus: In vitro antimalarial activity, SYBR Green MSF assay, Dd2. Particulars: Plasmodium falciparum, DD2. The format is cell-based. From the text: This example describes the screening of disclosed antimalarial acridones against the CQ-sensitive D6 strain and the MDR Dd2 strain of P. falciparum for in vitro antimalarial activity.
As shown in Table 3 and Table 4, selected soluble acridone derivatives were screened for antimalarial activity against the CQ-sensitive D6 and the MDR Dd2 strains of P. falciparum.

Assay [2] is described as follows: In vitro heme aggregation assay. Conditions: 25 mM phosphate buffer, pH 4.8, 30 minutes at room temperature. The procedure: This example describes the in vitro inhibition of heme aggregation by xanthone 2,3,4,5,6-pentahydroxyxanthone. Conditions: 25 mM Phosphate buffer, pH 5.2, 1 hour incubation at 37° C. Further details of this assay are described by Ignatushchenko et al. in Xanthones as antimalarial agents; studies of a possible mode of action.
This example describes visual evidence that acridones disclosed herein form soluble complexes with heme under mildly acidic conditions. […] Employing the same assay conditions, heme was mixed with T2 or T3.5 under mildly acidic conditions (25 mM phosphate buffer, pH 4.8) and monitored. […] Without being limited to theory, it is believed that for some compounds inhibition of heme aggregation in vitro can be correlated with inhibition of hemozoin formation in vivo.

In assay [3] the test system is QN-sensitive P. yoelii (K). The assay can be described thus: In vivo synergism T3.5 and quinine, 6-day Thompson test in mice. Conditions: alone or fixed-ratio combination (dose of each). The procedure: In vivo synergism was assessed using the 6-day Thompson test in mice infected with QN-sensitive P. yoelii (K), comparing the efficacy of T3.5 alone, QN alone and T3.5:QN combinations (Table 7). Dosages were established using a rigorous fixed-ratio combination dosing protocol and results were assessed using Calcusyn software to determine synergy. As in the case of the in vitro combination, there was evident in vivo synergism.

The next assay relates to P. falciparum Dd2 MDR. The assay can be described thus: Morphology of synchronized Dd2 parasitized red cells. It is filed as cell-based. Particulars: 300 nM; 36 hours of incubation; vs controls. The procedure: P. falciparum Dd2 MDR parasited red cells were synchronized to the ring stage by sorbitol lysis and incubated the cells in the presence or absence of 300 nM T3.5. […] P. yoelii infected mice treated with T3.5 harbor PRBCs that lack hemozoin. Taken together these observations are consistent with the notion that T3.5 blocks hemozoin formation in infected cells.

Molecules are shown by their SMILES. Like-named read-outs stand apart in the source and are kept apart here.

With `CCN(CC)CCOc1ccc2c(=O)c3ccc(Cl)cc3n(CCN(CC)CC)c2c1` [T3.5, 3-(2-diethylaminoethoxy)-6-chloro-10-(2-diethylaminoethyl)-9-acridone], the IC50 in assay [1] (Table 2, average of 4 independent experiments, read-out: IC50, Dd2) is 58 nM. For the same compound, the IC50 in assay [1] (Table 4, read-out: IC50 P. falciparum Dd2) was 77 nM. The “formation of heme aggregates” value in assay [2] is given as “prevent the formation of heme aggregates”. Moreover, in assay [3], the ED50 dose worked out at 56 mg/kg/day, the ED75 dose is listed as 70 mg/kg/day and the ED90 dose is on record as 88 mg/kg/day. Moreover, in the assay with P. falciparum Dd2 MDR, the visible hemozoin result is on record as “markedly diminished”.
